In experiment [1] the target is T1, Phosphatidylinositol 4,5-bisphosphate 3-kinase catalytic subunit delta isoform (Homo sapiens, UniProt O00329).
T1 sequence (O00329 whole entry): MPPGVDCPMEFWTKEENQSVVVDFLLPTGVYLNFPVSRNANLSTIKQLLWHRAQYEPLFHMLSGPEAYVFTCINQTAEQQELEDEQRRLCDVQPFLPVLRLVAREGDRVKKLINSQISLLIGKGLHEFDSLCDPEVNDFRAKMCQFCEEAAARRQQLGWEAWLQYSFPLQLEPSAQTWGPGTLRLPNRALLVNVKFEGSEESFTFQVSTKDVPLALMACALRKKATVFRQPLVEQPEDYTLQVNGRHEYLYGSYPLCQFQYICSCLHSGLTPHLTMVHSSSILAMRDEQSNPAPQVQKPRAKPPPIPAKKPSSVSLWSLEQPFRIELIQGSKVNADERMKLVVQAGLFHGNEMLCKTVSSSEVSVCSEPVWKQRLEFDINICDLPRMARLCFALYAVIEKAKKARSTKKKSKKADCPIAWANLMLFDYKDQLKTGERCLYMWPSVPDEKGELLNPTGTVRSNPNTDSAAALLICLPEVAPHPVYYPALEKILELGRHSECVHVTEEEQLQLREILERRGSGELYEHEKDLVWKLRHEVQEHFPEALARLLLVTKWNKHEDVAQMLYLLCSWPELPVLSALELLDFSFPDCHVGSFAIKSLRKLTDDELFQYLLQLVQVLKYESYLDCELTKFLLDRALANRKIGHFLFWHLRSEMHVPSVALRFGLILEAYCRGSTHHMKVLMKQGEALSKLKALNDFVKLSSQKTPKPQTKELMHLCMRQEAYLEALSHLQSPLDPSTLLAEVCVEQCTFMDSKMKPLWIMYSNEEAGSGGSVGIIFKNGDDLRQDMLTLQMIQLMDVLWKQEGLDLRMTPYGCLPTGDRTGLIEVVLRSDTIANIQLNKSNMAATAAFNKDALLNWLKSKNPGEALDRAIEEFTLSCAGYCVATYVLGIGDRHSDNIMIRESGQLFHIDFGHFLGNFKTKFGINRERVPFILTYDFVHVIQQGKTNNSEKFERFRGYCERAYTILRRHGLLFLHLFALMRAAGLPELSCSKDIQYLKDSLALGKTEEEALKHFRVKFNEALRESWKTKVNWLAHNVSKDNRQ
As to the kind of experiment: Inhibition of PI3Kdelta (unknown origin).

The target in experiment [2] is Phosphatidylinositol 4,5-bisphosphate 3-kinase catalytic subunit alpha isoform (Homo sapiens, UniProt P42336). As to the kind of experiment: Inhibition of PI3Kalpha (unknown origin).
Chain of Phosphatidylinositol 4,5-bisphosphate 3-kinase catalytic subunit alpha isoform (P42336 whole entry, canonical isoform): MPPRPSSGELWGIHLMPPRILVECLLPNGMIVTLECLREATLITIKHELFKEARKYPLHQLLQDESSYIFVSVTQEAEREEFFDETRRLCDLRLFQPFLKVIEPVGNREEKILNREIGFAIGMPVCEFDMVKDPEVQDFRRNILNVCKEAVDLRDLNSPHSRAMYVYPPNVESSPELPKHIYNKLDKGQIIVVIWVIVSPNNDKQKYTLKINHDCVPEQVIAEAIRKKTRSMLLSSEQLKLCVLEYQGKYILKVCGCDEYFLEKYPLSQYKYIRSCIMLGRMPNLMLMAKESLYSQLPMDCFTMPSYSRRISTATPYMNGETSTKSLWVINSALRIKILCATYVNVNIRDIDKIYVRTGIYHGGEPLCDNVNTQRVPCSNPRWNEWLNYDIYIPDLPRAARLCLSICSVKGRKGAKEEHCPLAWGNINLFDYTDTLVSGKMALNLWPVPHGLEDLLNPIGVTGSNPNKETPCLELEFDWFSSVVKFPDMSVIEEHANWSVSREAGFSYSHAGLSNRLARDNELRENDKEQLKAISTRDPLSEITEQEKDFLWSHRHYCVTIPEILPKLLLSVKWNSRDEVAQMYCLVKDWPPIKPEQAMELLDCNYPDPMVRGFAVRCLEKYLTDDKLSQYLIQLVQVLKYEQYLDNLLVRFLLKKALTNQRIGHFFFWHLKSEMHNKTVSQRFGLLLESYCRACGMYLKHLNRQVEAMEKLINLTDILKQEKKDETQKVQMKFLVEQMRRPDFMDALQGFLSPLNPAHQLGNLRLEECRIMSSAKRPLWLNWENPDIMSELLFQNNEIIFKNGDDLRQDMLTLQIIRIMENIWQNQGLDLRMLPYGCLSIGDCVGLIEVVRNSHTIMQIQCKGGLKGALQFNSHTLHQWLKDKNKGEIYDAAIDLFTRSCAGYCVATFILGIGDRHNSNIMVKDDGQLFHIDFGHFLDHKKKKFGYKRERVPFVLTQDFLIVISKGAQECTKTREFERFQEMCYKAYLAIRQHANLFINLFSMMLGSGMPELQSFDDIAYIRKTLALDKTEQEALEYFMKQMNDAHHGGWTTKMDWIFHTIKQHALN
Experiment [3] deals with Phosphatidylinositol 4,5-bisphosphate 3-kinase catalytic subunit beta isoform (Homo sapiens, UniProt P42338). As to the kind of experiment: Inhibition of PI3Kbeta (unknown origin).
Chain of Phosphatidylinositol 4,5-bisphosphate 3-kinase catalytic subunit beta isoform (P42338 whole entry, canonical isoform): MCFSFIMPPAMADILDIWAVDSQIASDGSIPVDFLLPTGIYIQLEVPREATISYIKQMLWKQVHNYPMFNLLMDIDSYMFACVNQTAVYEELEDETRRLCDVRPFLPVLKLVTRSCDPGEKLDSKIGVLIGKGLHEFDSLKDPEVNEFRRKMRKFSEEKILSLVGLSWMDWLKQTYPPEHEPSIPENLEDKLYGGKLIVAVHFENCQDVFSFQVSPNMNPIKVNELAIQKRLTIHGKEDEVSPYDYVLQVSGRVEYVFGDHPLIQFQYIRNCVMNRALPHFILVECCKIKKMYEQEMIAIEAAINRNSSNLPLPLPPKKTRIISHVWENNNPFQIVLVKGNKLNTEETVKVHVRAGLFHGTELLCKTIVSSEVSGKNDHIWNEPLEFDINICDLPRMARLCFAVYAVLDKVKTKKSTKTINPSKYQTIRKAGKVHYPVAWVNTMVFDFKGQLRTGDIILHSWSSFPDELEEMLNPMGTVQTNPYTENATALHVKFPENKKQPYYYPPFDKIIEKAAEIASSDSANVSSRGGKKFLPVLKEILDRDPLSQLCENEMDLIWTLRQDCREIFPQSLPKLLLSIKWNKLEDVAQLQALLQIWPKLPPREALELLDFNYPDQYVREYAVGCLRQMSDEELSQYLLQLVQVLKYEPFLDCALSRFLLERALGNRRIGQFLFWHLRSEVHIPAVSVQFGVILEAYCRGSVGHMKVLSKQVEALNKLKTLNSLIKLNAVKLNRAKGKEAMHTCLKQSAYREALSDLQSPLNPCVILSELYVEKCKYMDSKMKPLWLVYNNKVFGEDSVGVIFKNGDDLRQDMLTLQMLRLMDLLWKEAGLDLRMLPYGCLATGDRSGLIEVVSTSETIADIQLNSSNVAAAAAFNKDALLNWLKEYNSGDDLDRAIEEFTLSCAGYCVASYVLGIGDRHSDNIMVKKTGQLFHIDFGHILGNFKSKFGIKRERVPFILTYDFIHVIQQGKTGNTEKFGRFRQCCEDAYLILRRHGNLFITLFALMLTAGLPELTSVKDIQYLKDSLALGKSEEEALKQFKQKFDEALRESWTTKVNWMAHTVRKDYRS
Experiment [4] deals with Phosphatidylinositol 4,5-bisphosphate 3-kinase catalytic subunit gamma isoform (Homo sapiens, UniProt P48736). As to the kind of experiment: Inhibition of PI3Kgamma (unknown origin).
Chain of Phosphatidylinositol 4,5-bisphosphate 3-kinase catalytic subunit gamma isoform (P48736 whole entry, canonical isoform): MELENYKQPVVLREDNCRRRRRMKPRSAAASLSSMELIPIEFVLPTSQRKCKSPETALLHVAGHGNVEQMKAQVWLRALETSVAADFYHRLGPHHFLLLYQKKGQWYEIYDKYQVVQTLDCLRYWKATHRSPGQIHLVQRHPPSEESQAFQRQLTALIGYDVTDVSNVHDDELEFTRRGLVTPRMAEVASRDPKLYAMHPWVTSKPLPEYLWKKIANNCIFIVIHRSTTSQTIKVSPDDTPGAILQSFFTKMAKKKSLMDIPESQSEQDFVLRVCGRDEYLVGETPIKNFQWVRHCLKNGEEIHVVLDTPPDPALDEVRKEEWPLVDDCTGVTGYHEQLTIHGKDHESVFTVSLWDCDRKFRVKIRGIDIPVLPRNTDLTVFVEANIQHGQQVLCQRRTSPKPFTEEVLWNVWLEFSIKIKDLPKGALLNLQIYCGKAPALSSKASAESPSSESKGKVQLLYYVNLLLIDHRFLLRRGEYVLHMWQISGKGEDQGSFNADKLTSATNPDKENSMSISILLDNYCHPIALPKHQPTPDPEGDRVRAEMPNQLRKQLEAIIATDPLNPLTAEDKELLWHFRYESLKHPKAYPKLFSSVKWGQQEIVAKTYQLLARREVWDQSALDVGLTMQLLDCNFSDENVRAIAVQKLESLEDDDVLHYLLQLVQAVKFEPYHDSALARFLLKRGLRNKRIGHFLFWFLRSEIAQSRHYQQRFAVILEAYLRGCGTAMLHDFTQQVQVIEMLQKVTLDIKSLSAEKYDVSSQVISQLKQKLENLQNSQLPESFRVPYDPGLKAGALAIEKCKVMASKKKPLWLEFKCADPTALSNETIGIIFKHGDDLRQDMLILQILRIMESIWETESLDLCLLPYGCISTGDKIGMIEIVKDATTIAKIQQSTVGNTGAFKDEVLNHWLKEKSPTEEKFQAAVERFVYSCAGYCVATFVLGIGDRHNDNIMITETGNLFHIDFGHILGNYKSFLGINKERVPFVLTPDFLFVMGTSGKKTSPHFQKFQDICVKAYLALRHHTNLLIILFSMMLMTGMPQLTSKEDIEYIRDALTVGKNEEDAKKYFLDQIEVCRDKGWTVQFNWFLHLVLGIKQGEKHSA
Experiment [5] relates to HeLa. As to the kind of experiment: Antiproliferative activity against human HeLa cells. It counts as functional, cell-based.
In experiment [6] the test system is HL-60. Nature of the experiment: Antiproliferative activity against human HL-60 cells. The format is functional, cell-based.
Experiment [7] concerns U-87 MG. Nature of the experiment: Antiproliferative activity against human U-87 MG cells. The format is functional, cell-based, U-87MG ATCC.
For experiment [8], the system named is HepG2. As to the kind of experiment: Antiproliferative activity against human HepG2 cells. It counts as functional, cell-based.
Experiment [9] concerns A549. As to the kind of experiment: Antiproliferative activity against human A549 cells. It counts as functional, cell-based.
Experiment [10] deals with MCF7. As to the kind of experiment: Antiproliferative activity against human MCF7 cells. It counts as functional, cell-based.
Experiment [11] relates to U-87 MG. Nature of the experiment: Inhibition of Akt phosphorylation at Ser473 in human U-87 MG cells at 1 to 5 uM by Western blotting analysis. The format is cell-based. The following applies: dose 1-5 µM.
The subject of experiment [12] is U-87 MG. As to the kind of experiment: Inhibition of Akt expression in human U-87 MG cells at 1 uM by Western blotting analysis. It counts as cell-based.
Experiment [13] relates to U-87 MG. Nature of the experiment: Inhibition of Akt expression in human U-87 MG cells at 5 uM by Western blotting analysis. The format is cell-based.

The structures appear in SMILES notation. Active and inactive are the calls of the source. No cut-off for these calls is given here.

Take `CCOc1cnnc2ccc(-c3cnc(Cl)c(NS(=O)(=O)c4ccccc4)c3)cc12`: the IC50 amounted to 0.4 nM in experiment [1], 1.78 nM in experiment [2], 5.61 nM in experiment [3] and 4.73 nM in [4].
`O=S(=O)(Nc1cc(-c2ccc3nncc(-c4ccc(N5CCOCC5)cc4)c3c2)cnc1Cl)c1ccccc1`: the IC50 in [1] stood at 0.4 nM; in [2], 0.711 nM; in [3], 3.04 nM; in experiment [4], 2.29 nM.
Turning to `O=S(=O)(Nc1cc(-c2ccc3nncc(-c4ccc(N5CCOCC5)nc4)c3c2)cnc1Cl)c1ccccc1`, the IC50 stood at 0.28 nM in [1], 0.709 nM in experiment [2], 1.54 nM in experiment [3] and 1.89 nM in [4].
With `O=S(=O)(Nc1cc(-c2ccc3nncc(N4CCCC4)c3c2)cnc1Cl)c1ccccc1`, the half-inhibitory concentration (IC50) worked out at 0.87 nM in experiment [1], 2.64 nM in [2], 5.41 nM in experiment [3] and 5.97 nM in experiment [4].
For the compound `COc1ncc(-c2ccc3nncc(Nc4ccccc4)c3c2)cc1NS(=O)(=O)c1ccccc1`, half-maximal inhibition in experiment [1] (IC50) was put at 30.3 nM. This lies in the double-digit nanomolar range.
Turning to `Oc1cccc(-c2nc(N3CCOCC3)c3oc4ncccc4c3n2)c1` [PI-103], the IC50 turned out to be 230 nM in experiment [5] and 65.6 nM in [6].
For `CC1CCN(c2cnnc3ccc(-c4cnc(Cl)c(NS(=O)(=O)c5ccccc5)c4)cc23)CC1`, the IC50 worked out at 0.32 nM in [1], 1.61 nM in experiment [2], 5.33 nM in experiment [3] and 3.66 nM in experiment [4].
As to `O=S(=O)(Nc1cc(-c2ccc3nncc(Cl)c3c2)cnc1Cl)c1ccccc1`, it took 0.55 nM to reach half-maximal inhibition in experiment [1] (IC50).
Same read-out and setting: then `COc1cnnc2ccc(-c3cnc(Cl)c(NS(=O)(=O)c4ccccc4)c3)cc12`, with 1.1 nM; and `O=S(=O)(Nc1cc(-c2ccc3nncc(O)c3c2)cnc1Cl)c1ccccc1`, with 833 nM; and `CCCCCCOc1cnnc2ccc(-c3cnc(Cl)c(NS(=O)(=O)c4ccccc4)c3)cc12`, with 215 nM.
`COc1ncc(-c2ccc3nncc(Nc4ccc(NC(C)=O)cc4)c3c2)cc1NS(=O)(=O)c1ccccc1` registered an IC50 in [1] of 8.57 nM.
Take `COc1ncc(-c2ccc3nncc(Cl)c3c2)cc1NS(=O)(=O)c1ccccc1`: in [1], the IC50 came out at 4.42 nM.
In the case of `COc1ccc(CNc2cnnc3ccc(-c4cnc(Cl)c(NS(=O)(=O)c5ccccc5)c4)cc23)cc1`, 1.02 nM corresponded to half-maximal inhibition in [1] (IC50).
Take `COc1ncc(-c2ccc3nncc(N4CCOCC4)c3c2)cc1NS(=O)(=O)c1ccccc1`: the IC50 in experiment [1] came out at 4.08 nM.
As to `O=S(=O)(Nc1cc(-c2ccc3nncc(N4CCOCC4)c3c2)cnc1Cl)c1ccccc1`, the IC50 was found to be 0.85 nM in [1]; 1.55 nM in [2]; 14.5 nM in experiment [3]; 4.36 nM in [4]; 2020 nM in experiment [7]; 7700 nM in experiment [5]. Also, the IC50 in [8] was 18300 nM; in experiment [9] it was above 16600 nM; in experiment [6], above 16600 nM; in [10], 13100 nM.
Consider `O=S(=O)(Nc1cc(-c2ccc3nnccc3c2)cnc1Cl)c1ccccc1`, for which, in [1], the half-maximal inhibitory concentration (IC50) worked out at 19.4 nM.
Same read-out and setting: then `C[C@@H](Nc1cnnc2ccc(-c3cnc(Cl)c(NS(=O)(=O)c4ccccc4)c3)cc12)c1ccccc1`, with 5.46 nM.
In the case of `O=S(=O)(Nc1cc(-c2ccc3nncc(-c4ccncc4)c3c2)cnc1Cl)c1ccccc1`, the IC50 was 0.36 nM in [1], 0.71 nM in experiment [2], 1.7 nM in [3] and 2.25 nM in experiment [4].
Consider `CC(=O)Nc1ccc(Nc2cnnc3ccc(-c4cnc(Cl)c(NS(=O)(=O)c5ccccc5)c4)cc23)cc1`, for which it took 3.3 nM to reach half-maximal inhibition in experiment [1] (IC50).
For `O=S(=O)(Nc1cc(-c2ccc3nncc(N4CCNCC4)c3c2)cnc1Cl)c1ccccc1`, the IC50 in experiment [1] was 1.58 nM; in [7], 589 nM; in [5], above 16600 nM; in experiment [8] it was above 50000 nM; in experiment [9], above 50000 nM; in experiment [6], above 16600 nM. This compound also showed an IC50 in [10] above 50000 nM.
`C[C@H](Nc1cnnc2ccc(-c3cnc(Cl)c(NS(=O)(=O)c4ccccc4)c3)cc12)c1ccccc1` had an IC50 in [1] of 27 nM.
Take `O=S(=O)(Nc1cc(-c2ccc3nncc(-c4cnc(N5CCOCC5)nc4)c3c2)cnc1Cl)c1ccccc1`: the IC50 in [1] was 0.65 nM; in experiment [2], 0.936 nM; in experiment [3] it was 4.72 nM; in [4], 4.42 nM; in experiment [7], 264 nM; in experiment [5], 2040 nM. Moreover, the IC50 was above 16600 nM in [8], 10100 nM in experiment [9], 1140 nM in experiment [6] and 31100 nM in experiment [10]. Further, the inhibition result in experiment [11] and in [13] was “Active” in each case. Besides, in experiment [12], the inhibition entry was “inactive”.
For the compound `O=S(=O)(Nc1cc(-c2ccc3nncc(-c4ccccc4)c3c2)cnc1Cl)c1ccccc1`, half-maximal inhibition in experiment [1] (IC50) was put at 2.91 nM. That is a single-digit nanomolar value.
In the case of `O=S(=O)(Nc1cc(-c2ccc3nncc(N4CCCCC4)c3c2)cnc1Cl)c1ccccc1`, the 50% inhibitory concentration (IC50) in [1] was determined as 0.67 nM; in experiment [2] it was 1.33 nM; in experiment [3], 4.6 nM; in [4], 3.19 nM.
In experiment [1], `O=S(=O)(Nc1cc(-c2ccc3nncc(Nc4ccccc4)c3c2)cnc1Cl)c1ccccc1` came in with an IC50 of 4.47 nM.
Regarding `O=S(=O)(Nc1cc(-c2ccc3nncc(-n4ccnc4)c3c2)cnc1Cl)c1ccccc1`, the IC50 in experiment [1] was 0.21 nM; in experiment [2], 1.37 nM; in [3], 2.39 nM; in [4] it was 4.02 nM; in experiment [7], 16700 nM; in experiment [5], above 50000 nM. Further, the concentration for half-maximal inhibition (IC50) in experiment [8] is above 16600 nM; in experiment [9], above 50000 nM; in experiment [6], 2400 nM; in experiment [10], 39900 nM.

(Values after ChEMBL document CHEMBL4823294, “Discovery of cinnoline derivatives as potent PI3K inhibitors with antiproliferative activity” (Bioorg Med Chem Lett, 2021).)
